# Measured values reported in ChEMBL document CHEMBL1158310, “Cytotoxic Degradation Product of Physostigmine” (1996).
# The source made the active and inactive calls. No cut-off for these calls is given here.
# Legend:
# [1] = Cytotoxicity against human KBVIN cells in presence of vinblastine; format: functional; settings: read-out: ED50 (the source's name)
# ZR-75-1 = test: Cytotoxicity against human ZR-75-1 cells; format: functional, cell-based
# [2] = Antimitotic activity in rat ASK cells assessed as astrocyte generation at […] by light microscopy; format: functional; settings: read-out: ED50 (the source's name)
# Lu1 = test: Cytotoxicity against human Lu1 cells; format: functional; settings: read-out: ED50 (the source's name)
# LNCaP = test: Cytotoxicity against human LNCAP cells; format: functional; settings: read-out: ED50 (the source's name)
# KB = test: Cytotoxicity against human KB cells; format: functional; settings: read-out: ED50 (the source's name)
# [3] = Cytotoxicity against human KBVIN cells in absence of vinblastine; format: functional; settings: read-out: ED50 (the source's name)
Structure (SMILES),EC50 [1] [µg/mL],Activity (ZR-75-1),EC50 [2] [µg/mL],EC50 (Lu1) [µg/mL],EC50 (LNCaP) [µg/mL],EC50 (KB) [µg/mL],EC50 [3] [µg/mL]
CCNC1=CC2=N[C@H]3N(C)CC[C@@]3(C)C2=CC1=O,0.6,inactive,1.9,1.5,0.3,0.2,0.8
CN1CC[C@@]2(C)C3=CC(=O)C(=O)C=C3N(C)[C@@H]12 [RUBRESERINE],> 20,Active,> 20,> 20,13.1,> 20,16.8
